Laboratory results from patent US6737383B1, “Herbicidal oxadiazolidines” (priority 1999, dated 2004).

Assays:
crabgrass = experiment: Test B pre/postemergence crabgrass; format: in vivo, Digitaria sanguinalis; details: for Crabgrass plant response rating (0 to 10 scale): 0 is no effect
How it was run: (§1)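 Test chemicals in a non-phytotoxic solvent mixture with surfactant were sprayed preemergence onto planted seeds and postemergence onto plants 2 to 18 cm tall (1- to 4-leaf stage). After twelve to sixteen days in a greenhouse, injury was visually rated against untreated controls from 0 (no effect) to 10 (complete control).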

corn = experiment: Test B pre/postemergence corn; format: in vivo, Zea mays; details: for Corn plant response rating (0 to 10 scale): 0 is no effect
How it was run: as §1

surinam grass = experiment: Test B pre/postemergence surinam grass; format: in vivo, Brachiaria decumbens; details: for B. signalgrass plant response rating (0 to 10 scale): 0 is no effect
How it was run: as §1

bedstraw = experiment: Test B pre/postemergence bedstraw; format: in vivo, Galium aparine; details: for Bedstraw plant response rating (0 to 10 scale): 0 is no effect
How it was run: as §1

[1] = Postemergence, Rate 62 g/ha, scale 0 to 10, 0 is no effect, 10 is complete control
[2] = Postemergence, Rate 250 g/ha, scale 0 to 10, 0 no effect, 10 complete control
[3] = Preemergence, Rate 62 g/ha, scale 0 to 10 (0 no effect, 10 complete control)
[4] = Preemergence, Rate 125 g/ha, scale 0 to 10 (0 no effect, 10 complete control)
[5] = Preemergence, Rate 250 g/ha, scale of 0 to 10 where 0 is no effect and 10 is complete control
[6] = Preemergence, Rate 500 g/ha, scale 0 (no effect) to 10 (complete control)
[7] = Rate 125 g/ha, Postemergence, scale 0 to 10, 0 no effect, 10 complete control
[8] = Rate 500 g/ha, Postemergence, scale 0 to 10, 0 no effect, 10 complete control
[9] = Rate 500 g/ha, Postemergence, scale of 0 to 10 where 0 is no effect and 10 is complete control
[10] = Postemergence, Rate 125 g/ha, scale of 0 to 10 where 0 is no effect and 10 is complete control
[11] = Preemergence, Rate 500 g/ha, scale 0 to 10 (0 no effect, 10 complete control)
[12] = Rate 62 g/ha, Postemergence, scale of 0 to 10 where 0 is no effect and 10 is complete control
[13] = Postemergence, Rate 1000 g/ha, scale 0 to 10 (0 no effect, 10 complete control)
[14] = Preemergence, Rate 125 g/ha, 10 is complete control
[15] = Preemergence, Rate 250 g/ha, scale 0 to 10, 0 is no effect, 10 is complete control
[16] = Rate 250 g/ha, Postemergence, scale 0 to 10, 0 is no effect, 10 is complete control
[17] = Rate 500 g/ha, Postemergence, scale 0 to 10
[18] = Rate 1000 g/ha, Preemergence, scale 0 to 10 (0 no effect, 10 complete control)
[19] = Preemergence, Rate 31 g/ha, visual rating, scale 0 to 10 (0 no effect, 10 complete control)
[20] = Rate 31 g/ha, Postemergence, scale 0 to 10
[21] = Preemergence, Rate 62 g/ha, scale of 0 to 10 where 0 is no effect and 10 is complete control

Cc1ccccc1Cn1c(=O)on(C(=O)N(C)c2ccccc2)c1=O [Compound 85]
Crabgrass plant response rating (crabgrass; [1]): 0 | Crabgrass plant response rating (crabgrass; [2]): 0 | Crabgrass plant response rating (crabgrass; [3]): 0 | Plant response rating, Crabgrass (crabgrass; [4]): 0 | Plant response rating, Crabgrass (crabgrass; [5]): 0 | Crabgrass plant response rating (crabgrass; [6]): 0 | Crabgrass plant response rating (crabgrass; [7]): 0 | Crabgrass plant response rating (crabgrass; [8]): 0 | Corn plant response rating (corn; [1]): 0 | Corn plant response rating (corn; [2]): 0 | Corn plant response rating (corn; [3]): 0 | Plant response rating, Corn (corn; [4]): 0 | Plant response rating, Corn (corn; [5]): 0 | Corn plant response rating (corn; [6]): 0 | Corn plant response rating (corn; [7]): 0 | Corn plant response rating (corn; [8]): 0 | B. signalgrass plant response rating (surinam grass; [1]): 0 | B. signalgrass plant response rating (surinam grass; [2]): 0 | B. signalgrass plant response rating (surinam grass; [3]): 0 | Plant response rating, B. signalgrass (surinam grass; [4]): 0 | Plant response rating, B. signalgrass (surinam grass; [5]): 0 | B. signalgrass plant response rating (surinam grass; [6]): 0 | B. signalgrass plant response rating (surinam grass; [7]): 0 | B. signalgrass plant response rating (surinam grass; [9]): 0 | Bedstraw plant response rating (bedstraw; [1]): 0 | Bedstraw plant response rating (bedstraw; [2]): 0 | Bedstraw plant response rating (bedstraw; [3]): 0 | Plant response rating, Bedstraw (bedstraw; [4]): 0 | Plant response rating, Bedstraw (bedstraw; [5]): 0 | Bedstraw plant response rating (bedstraw; [6]): 0 | Bedstraw plant response rating (bedstraw; [7]): 0 | Bedstraw plant response rating (bedstraw; [8]): 0

CC(C)N(C(=O)n1oc(=O)n(Cc2ccccc2)c1=O)c1ccc(Cl)cc1 [Compound 106]
Crabgrass plant response rating (crabgrass; [10]): 0 | Crabgrass plant response rating (crabgrass; [2]): 3 | Crabgrass plant response rating (crabgrass; [3]): 0 | Plant response rating, Crabgrass (crabgrass; [4]): 0 | Plant response rating, Crabgrass (crabgrass; [5]): 8 | Crabgrass plant response rating (crabgrass; [11]): 8 | Crabgrass plant response rating (crabgrass; [12]): 0 | Crabgrass plant response rating (crabgrass; [8]): 6 | Corn plant response rating (corn; [10]): 0 | Corn plant response rating (corn; [2]): 0 | Corn plant response rating (corn; [3]): 0 | Plant response rating, Corn (corn; [4]): 0 | Plant response rating, Corn (corn; [5]): 0 | Corn plant response rating (corn; [11]): 0 | Corn plant response rating (corn; [12]): 0 | Corn plant response rating (corn; [8]): 0 | B. signalgrass plant response rating (surinam grass; [1]): 0 | B. signalgrass plant response rating (surinam grass; [2]): 0 | B. signalgrass plant response rating (surinam grass; [3]): 0 | Plant response rating, B. signalgrass (surinam grass; [4]): 0 | Plant response rating, B. signalgrass (surinam grass; [5]): 0 | B. signalgrass plant response rating (surinam grass; [11]): 2 | B. signalgrass plant response rating (surinam grass; [7]): 0 | B. signalgrass plant response rating (surinam grass; [9]): 0 | Bedstraw plant response rating (bedstraw; [1]): 0 | Bedstraw plant response rating (bedstraw; [2]): 3 | Bedstraw plant response rating (bedstraw; [3]): 0 | Plant response rating, Bedstraw (bedstraw; [4]): 0 | Plant response rating, Bedstraw (bedstraw; [5]): 3 | Bedstraw plant response rating (bedstraw; [11]): 4 | Bedstraw plant response rating (bedstraw; [7]): 0 | Bedstraw plant response rating (bedstraw; [8]): 7

C=CCn1c(=O)on(C(=O)N(c2ccc(F)cc2F)C2CC2)c1=O [Compound 127]
Crabgrass plant response rating (crabgrass; [10]): 0 | Crabgrass plant response rating (crabgrass; [13]): 0 | Crabgrass plant response rating (crabgrass; [3]): 0 | Crabgrass plant response rating (0 to 10 scale) (crabgrass; [14]): 0 | Crabgrass plant response rating (crabgrass; [15]): 0 | Crabgrass plant response rating (crabgrass; [11]): 0 | Crabgrass plant response rating (crabgrass; [12]): 0 | Plant response rating, Crabgrass (crabgrass; [16]): 0 | Crabgrass plant response rating (crabgrass; [17]): 0 | Plant response rating, Crabgrass (crabgrass; [18]): 7 | Corn plant response rating (corn; [10]): 0 | Corn plant response rating (corn; [13]): 0 | Corn plant response rating (corn; [3]): 0 | Corn plant response rating (0 to 10 scale) (corn; [14]): 0 | Corn plant response rating (corn; [15]): 0 | Corn plant response rating (corn; [11]): 0 | Corn plant response rating (corn; [12]): 0 | Plant response rating, Corn (corn; [16]): 0 | Corn plant response rating (corn; [17]): 0 | Plant response rating, Corn (corn; [18]): 0 | B. signalgrass plant response rating (surinam grass; [1]): 0 | B. signalgrass plant response rating (surinam grass; [10]): 0 | B. signalgrass plant response rating (surinam grass; [13]): 0 | B. signalgrass plant response rating (surinam grass; [3]): 0 | B. signalgrass plant response rating (0 to 10 scale) (surinam grass; [14]): 0 | B. signalgrass plant response rating (surinam grass; [15]): 0 | B. signalgrass plant response rating (surinam grass; [11]): 0 | Plant response rating, B. signalgrass (surinam grass; [16]): 0 | B. signalgrass plant response rating (surinam grass; [9]): 0 | Plant response rating, B. signalgrass (surinam grass; [18]): 0 | Bedstraw plant response rating (bedstraw; [1]): 0 | Bedstraw plant response rating (bedstraw; [10]): 0 | Bedstraw plant response rating (bedstraw; [13]): 0 | Bedstraw plant response rating (bedstraw; [3]): 0 | Bedstraw plant response rating (0 to 10 scale) (bedstraw; [14]): 0 | Bedstraw plant response rating (bedstraw; [15]): 0 | Bedstraw plant response rating (bedstraw; [11]): 0 | Plant response rating, Bedstraw (bedstraw; [16]): 0 | Bedstraw plant response rating (bedstraw; [8]): 0 | Plant response rating, Bedstraw (bedstraw; [18]): 0

CC(C)N(C(=O)n1oc(=O)n(Cc2ccccc2Cl)c1=O)C1=CCCCC1 [Compound 145]
Crabgrass plant response rating (crabgrass; [10]): 3 | Crabgrass plant response rating (crabgrass; [3]): 0 | Crabgrass plant response rating (0 to 10 scale) (crabgrass; [14]): 4 | Crabgrass plant response rating (crabgrass; [15]): 4 | Crabgrass plant response rating (crabgrass; [11]): 8 | Crabgrass plant response rating (crabgrass; [12]): 2 | Plant response rating, Crabgrass (crabgrass; [16]): 8 | Crabgrass plant response rating (crabgrass; [17]): 8 | Corn plant response rating (corn; [10]): 0 | Corn plant response rating (corn; [3]): 0 | Corn plant response rating (0 to 10 scale) (corn; [14]): 0 | Corn plant response rating (corn; [15]): 0 | Corn plant response rating (corn; [11]): 0 | Corn plant response rating (corn; [12]): 0 | Plant response rating, Corn (corn; [16]): 0 | Corn plant response rating (corn; [17]): 0 | B. signalgrass plant response rating (surinam grass; [10]): 0 | B. signalgrass plant response rating (surinam grass; [3]): 0 | B. signalgrass plant response rating (0 to 10 scale) (surinam grass; [14]): 0 | B. signalgrass plant response rating (surinam grass; [15]): 3 | B. signalgrass plant response rating (surinam grass; [11]): 5 | B. signalgrass plant response rating (surinam grass; [12]): 0 | Plant response rating, B. signalgrass (surinam grass; [16]): 0 | B. signalgrass plant response rating (surinam grass; [9]): 2 | Bedstraw plant response rating (bedstraw; [10]): 2 | Bedstraw plant response rating (bedstraw; [3]): 0 | Bedstraw plant response rating (0 to 10 scale) (bedstraw; [14]): 0 | Bedstraw plant response rating (bedstraw; [15]): 0 | Bedstraw plant response rating (bedstraw; [11]): 4 | Bedstraw plant response rating (bedstraw; [12]): 0 | Plant response rating, Bedstraw (bedstraw; [16]): 3 | Bedstraw plant response rating (bedstraw; [8]): 5

Cc1noc(C)c1-n1c(=O)on(C(=O)N(c2ccc(F)cc2F)C(C)C)c1=O [Compound 156]
Crabgrass plant response rating (crabgrass; [10]): 0 | Crabgrass plant response rating (crabgrass; [19]): 0 | Crabgrass plant response rating (crabgrass; [3]): 0 | Crabgrass plant response rating (0 to 10 scale) (crabgrass; [14]): 4 | Crabgrass plant response rating (crabgrass; [15]): 6 | Crabgrass plant response rating (crabgrass; [20]): 0 | Crabgrass plant response rating (crabgrass; [12]): 0 | Plant response rating, Crabgrass (crabgrass; [16]): 0 | Corn plant response rating (corn; [10]): 0 | Corn plant response rating (corn; [19]): 0 | Corn plant response rating (corn; [3]): 0 | Corn plant response rating (0 to 10 scale) (corn; [14]): 0 | Corn plant response rating (corn; [15]): 0 | Corn plant response rating (corn; [20]): 0 | Corn plant response rating (corn; [12]): 0 | Plant response rating, Corn (corn; [16]): 0 | B. signalgrass plant response rating (surinam grass; [10]): 0 | B. signalgrass plant response rating (surinam grass; [19]): 0 | B. signalgrass plant response rating (surinam grass; [3]): 0 | B. signalgrass plant response rating (0 to 10 scale) (surinam grass; [14]): 0 | B. signalgrass plant response rating (surinam grass; [15]): 2 | B. signalgrass plant response rating (surinam grass; [20]): 0 | B. signalgrass plant response rating (surinam grass; [12]): 0 | Plant response rating, B. signalgrass (surinam grass; [16]): 0 | Bedstraw plant response rating (bedstraw; [10]): 0 | Bedstraw plant response rating (bedstraw; [19]): 0 | Bedstraw plant response rating (bedstraw; [3]): 0 | Bedstraw plant response rating (0 to 10 scale) (bedstraw; [14]): 0 | Bedstraw plant response rating (bedstraw; [15]): 0 | Bedstraw plant response rating (bedstraw; [20]): 0 | Bedstraw plant response rating (bedstraw; [12]): 0 | Plant response rating, Bedstraw (bedstraw; [16]): 0

CCN(Cc1ccccc1)C(=O)n1oc(=O)n(C(C)C)c1=O [Compound 166]
Crabgrass plant response rating (crabgrass; [10]): 1 | Crabgrass plant response rating (crabgrass; [21]): 4 | Crabgrass plant response rating (0 to 10 scale) (crabgrass; [14]): 4 | Crabgrass plant response rating (crabgrass; [15]): 7 | Crabgrass plant response rating (crabgrass; [11]): 7 | Crabgrass plant response rating (crabgrass; [12]): 0 | Plant response rating, Crabgrass (crabgrass; [16]): 3 | Crabgrass plant response rating (crabgrass; [17]): 4 | Corn plant response rating (corn; [10]): 0 | Corn plant response rating (corn; [21]): 0 | Corn plant response rating (0 to 10 scale) (corn; [14]): 0 | Corn plant response rating (corn; [15]): 0 | Corn plant response rating (corn; [11]): 0 | Corn plant response rating (corn; [12]): 0 | Plant response rating, Corn (corn; [16]): 0 | Corn plant response rating (corn; [17]): 0 | B. signalgrass plant response rating (surinam grass; [10]): 0 | B. signalgrass plant response rating (surinam grass; [21]): 0 | B. signalgrass plant response rating (0 to 10 scale) (surinam grass; [14]): 0 | B. signalgrass plant response rating (surinam grass; [15]): 0 | B. signalgrass plant response rating (surinam grass; [11]): 4 | B. signalgrass plant response rating (surinam grass; [12]): 0 | Plant response rating, B. signalgrass (surinam grass; [16]): 0 | B. signalgrass plant response rating (surinam grass; [8]): 0 | Bedstraw plant response rating (bedstraw; [10]): 0 | Bedstraw plant response rating (bedstraw; [21]): 0 | Bedstraw plant response rating (0 to 10 scale) (bedstraw; [14]): 0 | Bedstraw plant response rating (bedstraw; [15]): 0 | Bedstraw plant response rating (bedstraw; [11]): 0 | Bedstraw plant response rating (bedstraw; [12]): 0 | Plant response rating, Bedstraw (bedstraw; [16]): 1 | Bedstraw plant response rating (bedstraw; [17]): 5
